Experimental data published in publication PMC10447463, “Data-mining unveils structure–property–activity correlation of viral infectivity enhancing self-assembling peptides” (Nature Communications, 2023).
Read-outs that look alike come from different tables or passages of the source.

Legend:
[1] = format: physicochemical; parameters: key to Fibril / Fibril Formation / TEM 2cat / Fibril: 1 = fibrils present; 0 non-fibrillar structures; details: for Fibril / Fibril Formation: 1 mg/mL, uranyl acetate stain, qualitative
[2] = β-sheet content by ATR-FT-IR; format: physicochemical; details: for b -sheet / %: Fig. S7 panel A, β-sheet content by ATR-FT-IR; for beta sheet: peptides with TEM 2cat 0
Description: For ATR FT–IR spectroscopy measurements, 200 µL of the respective 1 mg/mL PNF solution was lyophilized and the resulting powder used for measurement. All spectra were recorded on a Bruker Tensor 27 spectrometer with a diamond crystal as ATR element (PIKE MiracleTM, spectral resolution 2 cm^-1). Every sample was measured with 64 scans. Data were analyzed with OriginLab software and calculation of β–sheet content was conducted according to a previous report. TEM. For TEM measurements 5 µL of PNF fibrils (1 mg/mL) were placed on copper grids coated with carbon and formvar layer (300 mesh, Plano GmbH). After 10 min incubation time, the grids were staining with 4% uranyl acetate solution for 2.5 min and washed with water. Measurements were performed on a Jeol 1400 electron microscope with 120 kV acceleration voltage. CR Assay. For the determination of the amount of peptide monomer converting into nanostructures the amine reactive dye fluorescamine was used analogous to a previous reported protocol. Briefly, 100 µL of the preformed PNF solution was centrifuged in a Vivaspin 500 tube (3 kDa MWCO) to separate fibers from free peptide monomer (16200 x g, 4 °C, 45 min). The filtrate and 100 μL of the non-filtered PNF sample were lyophilized and dissolved in 30 μL DMSO. 10 μL of the filtrate and non-filtered DMSO samples were submitted in a black UV Star® 384 microliter well–plates (Greiner bio–one) and 3 μL of the fluorescamine solution (10 mg/mL, DMSO) was added to measure the fluorescence enhancement. After 20 min of incubation at RT, fluorescence was recorded on an Infinite® M1000 PRO microplate reader (Tecan) at λem = 470 nm upon excitation at λex = 365 nm with 10 nm bandwidths and multiple reads per well (3×3). Measurements were repeated in triplicates and averaged with standard deviation. All values were calculated as n-fold fluorescence enhancement (DMSO only as a reference was set to 1). The conversion rate CR was defined according to the equation Eq. (3).3 CR=100−100×fluorescenceintensityfiltrate/fluorescenceintensityoriginal[%]

[3] = Zeta-potential measurement; format: physicochemical
In short: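 Samples: 1 mg/mL in PBS pH 7.4 (from DMSO), 1 d at RT, then diluted in 1 mM KCl immediately before measurement. Triplicates, two independent runs averaged.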

[4] = Turbidity, derived count rate of scattered light; format: physicochemical; details: for Count Rate / kcps: derived count rate of scattered light at 633 nm, 173°, from zeta-potential measurement, 0.1 mg/mL in 1 mM KCl after 1 d at 1 mg/mL in PBS, turbidity / microscopic aggregation, mean of triplicate; for Zeta Count Rate: peptides with TEM 2cat 0
In short: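 One-day room-temperature aggregation at 1 mg/mL in PBS (pH 7.4) preceded measurement; samples then went into 1 mM KCl. Triplicates per sample, two independent experiments averaged.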

[5] = Turbidity, derived count rate of scattered light; format: physicochemical; details: for Count Rate: derived count rate of scattered light (turbidity); for Log10 Count Rate: turbidity, derived count rate of scattered light, data of Figure 2D
[6] = Fig S10 panel D, fibril category by TEM
[7] = TEM, 1 = fibrils present, 0 = non-fibrillar
[8] = TEM, 1 = fibrils present, 0 = non-fibrillar structures
[9] = category: fibrils present or non-fibrillar
[10] = zeta potential of peptide assemblies
[11] = zeta-potential of peptide, source data of Figure 2C
[12] = zeta-potential of the peptide assemblies, mean, Figure 3A source data
[13] = Log10 of derived count rate of scattered light (turbidity)
[14] = log10 of derived count rate of scattered light (turbidity)
[15] = turbidity, Log10 of derived count rate of scattered light, Figure 3A source data
[16] = FigS12 panel A, fibril category by TEM

## CSISIQINM
[1]; [6]
  TEM 2cat: 1
[1]; Fig S10 panel E
  Fibril: 1
[1]; TEM
  Fibril / Fibril Formation: 1
[1]; [7]
  Fibril: 1
[1]; [8]
  Fibril: 1
[1]; [9]
  TEM 2cat: 1
[2]
  b -sheet / %: 55.93%
[3]; [10]
  Zeta-Pot.: -19.4
[3]; [11]
  Zeta-Potential / mV: -21.18 mV
[3]; [12]
  Zeta-Potential / mV: -19.4 mV
[4]; [13]
  Log10 Count Rate: 3.517
[4]
  Count Rate / kcps: 3291 kcps
[4]; [14]
  Log10 Count Rate: 3.517
[4]; [15]
  Log10 Count Rate: 3.517
[5]
  Count Rate: 3291
  Log10 Count Rate: 3.517

## EIEIQINM
[1]; [6]
  TEM 2cat: 1
[1]; Fig S10 panel E
  Fibril: 1
[1]; [16]
  TEM 2cat: 1
[1]; FigS12 panel B, TEM
  Fibril: 1
[1]; TEM
  Fibril / Fibril Formation: 1
[1]; [7]
  Fibril: 1
[1]; [8]
  Fibril: 1
[2]
  b -sheet / %: 53.87%
[3]
  Zeta-Pot.: -23.33
[3]; [11]
  Zeta-Potential / mV: -21.58 mV
[3]; [12]
  Zeta-Potential / mV: -23.33 mV
[4]; [13]
  Log10 Count Rate: 2.127
[4]
  Count Rate / kcps: 134 kcps
[4]; [14]
  Log10 Count Rate: 2.127
[4]; [15]
  Log10 Count Rate: 2.127
[5]
  Count Rate: 134
  Log10 Count Rate: 2.127

## EIEIQINMWQ
[1]; [6]
  TEM 2cat: 0
[1]; Fig S10 panel E
  Fibril: 0
[1]; TEM
  Fibril / Fibril Formation: 0
[1]; [7]
  Fibril: 0
[1]; [8]
  Fibril: 0
[1]; [9]
  TEM 2cat: 0
[2]
  b -sheet / %: 53.91%
  beta sheet: 54
[3]
  Zeta-Pot.: -19.13
[3]; [11]
  Zeta-Potential / mV: -19.93 mV
[3]; [12]
  Zeta-Potential / mV: -19.13 mV
[4]; [13]
  Log10 Count Rate: 3.102
[4]
  Count Rate / kcps: 1264 kcps
  Zeta Count Rate: 1264 kcp
[4]; [14]
  Log10 Count Rate: 3.102
[4]; [15]
  Log10 Count Rate: 3.102
[5]
  Count Rate: 1264
  Log10 Count Rate: 3.102

## EIKIQINM
[1]; [6]
  TEM 2cat: 1
[1]; Fig S10 panel E
  Fibril: 1
[1]; [16]
  TEM 2cat: 1
[1]; FigS12 panel B, TEM
  Fibril: 1
[1]; TEM
  Fibril / Fibril Formation: 1
[1]; [7]
  Fibril: 1
[1]; [8]
  Fibril: 1
[2]
  b -sheet / %: 48.03%
[3]
  Zeta-Pot.: -22.33
[3]; [11]
  Zeta-Potential / mV: -20.62 mV
[3]; [12]
  Zeta-Potential / mV: -22.33 mV
[4]; [13]
  Log10 Count Rate: 3.45
[4]
  Count Rate / kcps: 2816 kcps
[4]; [14]
  Log10 Count Rate: 3.45
[4]; [15]
  Log10 Count Rate: 3.45
[5]
  Count Rate: 2816
  Log10 Count Rate: 3.45

## HHHHKAKAKAKAWWWW
[1]; [6]
  TEM 2cat: 0
[1]; [16]
  TEM 2cat: 0
[1]; FigS12 panel B, TEM
  Fibril: 0
[1]; TEM
  Fibril / Fibril Formation: 0
[1]; [7]
  Fibril: 0
[1]; [8]
  Fibril: 0
[2]
  b -sheet / %: 40.26%
[3]
  Zeta-Pot.: 17.4
[3]; [11]
  Zeta-Potential / mV: 12.25 mV
[3]; [12]
  Zeta-Potential / mV: 17.4 mV
[4]; [13]
  Log10 Count Rate: 2.8188
[4]
  Count Rate / kcps: 659 kcps
[4]; [14]
  Log10 Count Rate: 2.8188
[4]; [15]
  Log10 Count Rate: 2.8188
[5]
  Count Rate: 658.9
  Log10 Count Rate: 2.8188

## HHHHKAKAKAKAYYYY
[1]; [6]
  TEM 2cat: 0
[1]; [16]
  TEM 2cat: 0
[1]; FigS12 panel B, TEM
  Fibril: 0
[1]; TEM
  Fibril / Fibril Formation: 0
[1]; [7]
  Fibril: 0
[1]; [8]
  Fibril: 0
[2]
  b -sheet / %: 44.29%
[3]; [10]
  Zeta-Pot.: 7.03
[3]; [11]
  Zeta-Potential / mV: 4.787 mV
[3]; [12]
  Zeta-Potential / mV: 7.03 mV
[4]; [13]
  Log10 Count Rate: 2.382
[4]
  Count Rate / kcps: 241 kcps
[4]; [14]
  Log10 Count Rate: 2.382
[4]; [15]
  Log10 Count Rate: 2.382
[5]
  Count Rate: 240.9
  Log10 Count Rate: 2.382

## HHHHKIKIKIKIWWWW
[1]; [6]
  TEM 2cat: 0
[1]; Fig S10 panel E
  Fibril: 0
[1]; TEM
  Fibril / Fibril Formation: 0
[1]; [7]
  Fibril: 0
[1]; [8]
  Fibril: 0
[1]; [9]
  TEM 2cat: 0
[2]
  b -sheet / %: 48.8%
  beta sheet: 49
[3]; [10]
  Zeta-Pot.: 14.5
[3]; [11]
  Zeta-Potential / mV: 14.42 mV
[3]; [12]
  Zeta-Potential / mV: 14.5 mV
[4]; [13]
  Log10 Count Rate: 4.376
[4]
  Count Rate / kcps: 23757 kcps
  Zeta Count Rate: 23757 kcp
[4]; [14]
  Log10 Count Rate: 4.376
[4]; logarithm of count rate in kcps
  Log10 Count Rate: 4.376
[4]; [15]
  Log10 Count Rate: 4.376
[5]
  Count Rate: 23756.66667
  Log10 Count Rate: 4.376
